Assay: xn = mol fraction of the nth substance listed
Details: 101 kPa, Liquid, Vibrating tube method

NCCN [ethane-1,2-diamine] + O
mass density [kg/m3]
Details	288.15 K	293.15 K	298.15 K	303.15 K	308.15 K	313.15 K	318.15 K
x2 = 0.0401	905.79	901.13	896.45	891.76	887.06	882.34	877.6
x2 = 0.0797	909.79	905.15	900.49	895.82	891.14	886.43	881.71
x2 = 0.1199	914.18	909.56	904.92	900.27	895.6	890.91	886.2
x2 = 0.1598	918.88	914.28	909.66	905.03	900.38	895.71	891.01
x2 = 0.2003	923.88	919.29	914.69	910.07	905.43	900.77	896.09
x2 = 0.25	930.08	925.52	920.93	916.33	911.71	907.07	902.4
x2 = 0.2999	936.78	932.23	927.67	923.08	918.47	913.84	909.18
x2 = 0.3497	944.11	939.57	935.02	930.44	925.84	921.21	916.56
x2 = 0.3998	951.74	947.2	942.65	938.08	933.48	928.86	924.21
x2 = 0.4504	959.71	955.18	950.64	946.07	941.48	936.86	932.22
x2 = 0.5001	967.93	963.41	958.87	954.3	949.72	945.1	940.46
x2 = 0.5499	976.43	971.92	967.39	962.83	958.26	953.66	949.04
x2 = 0.5998	984.56	980.1	975.61	971.09	966.55	961.99	957.4
x2 = 0.6499	991.92	987.54	983.14	978.72	974.26	969.77	965.25
x2 = 0.7004	998.03	993.83	989.6	985.34	981.04	976.7	972.33
x2 = 0.7499	1001.68	997.76	993.81	989.81	985.76	981.67	977.53
x2 = 0.8	1002.5	999	995.45	991.83	988.16	984.43	980.63
x2 = 0.84	1001.38	998.31	995.17	991.96	988.67	985.31	981.87
x2 = 0.88	999.21	996.66	994.01	991.27	988.42	985.47	982.43
x2 = 0.9193	997.06	995.08	992.96	990.71	988.32	985.81	983.17
x2 = 0.9599	996.39	995.01	993.42	991.65	989.7	987.59	985.32

From the NIST ThermoML archive (doi:10.1016/j.tca.2006.01.013)
